Experimental data as given in patent US20010031268A1, “Antigen preparations” (priority 1999, published 2001).

How the values were obtained:
[1] = system: Neisseria meningitidis strain B16B6; test: Growth of Neisseria meningitidis culture (optical density at 600 nm) with and without norepinephrine bitartrate; format: cell-based; conditions: 100 micromolar added at 20 hours post-inoculation; MEM with NEAA, Vitox (iron) and ABS (iron chelator); OD 600 nm until 30 hours
Procedure: A culture of Neisseria meningitidis strain B16B6 (obtainable from the National Collection of Type Cultures, PHLS, Colindale, London, UK) was grown overnight at 37 deg C. on a GC agar plate (Oxoid) containing 2% Vitox (Oxoid). Vitox is a defined growth supplement suitable for enrichment of culture media and contains, amongst other ingredients, a source of iron.
At the end of incubation, about 20 bacterial colonies were harvested from the GC agar plate and suspended in 100 microliters of sterile phosphate-buffered saline (PBS; Gibco). The resulting bacterial suspension was then grown at 37 deg C for 4 hours on a GC agar plate containing 2% Vitox. At the end of incubation, the agar plate was flooded with 2 ml of sterile PBS and the bacterial suspension transferred into a sterile container. Optical density of the suspension was then determined at 600 nm. An optical density at 600 nm of 0.1 is equivalent to about 2×10^8 cfu/ml of Neisseria meningitidis. […]
The test medium was incubated at 37 deg C. with shaking at 180 rpm. The optical density of the culture was measured at 600 nm at 2, 4 and 20 hours post-inoculation of the media.
At 20 hours post-inoculation, the test sample was divided into halves. […] Both half-samples were then further incubated at 37 deg C., and optical density at 600 nm measured every 2 hours until 30 hours post-inoculation. […]

Neisseria meningitidis = test: SDS-PAGE protein analysis of bacteria grown with and without norepinephrine bitartrate; format: cell-based
From the text: Samples of “test” bacteria grown as described above in MEM containing NEAA, iron chelator (ABS) and iron (Vitox) both in the presence and absence of norepinephrine bitartrate were taken. The samples were centrifuged to pellet bacteria. The bacterial pellets obtained were resuspended in 50 microliters of TE buffer (Sambrook et al: 1989, Molecular cloning: A Laboratory Manual, Cold Spring Harbour Laboratory Press, N.Y.) and 200 microliters of SDS-PAGE solubilisation buffer added (Sambrook et al: as above). The mixture was then heated at 70 deg C to solubilize proteins. Samples and appropriate molecular weight markers were then run on 10% and 12% SDS-polyacrylamide gels. The gels were then stained with Coomassie blue stain, according to a standard method, and protein bands observed.
Culture was carried out in MEM medium containing NEAA, iron (Vitox) and an iron chelator (ABS), either with norepinephrine bitartrate added to the culture (lane 1), or without norepinephrine bitartrate (lane 2). Molecular weight markers (kD) are also shown (lane M).

Neisseria = conditions: no catechol inducer
E. coli = conditions: low inoculum levels (50-1000 bacterial cells/ml)

Compound	growth of a culture of Neisseria meningitidis [1]	newly expressed or overexpressed further proteins (SDS-PAGE) (Neisseria meningitidis; compared with bacteria cultured without norepinephrine)	proteins expressed only when grown in the presence of the inducer (SDS-PAGE, Coomassie) (Neisseria meningitidis; compared with bacteria grown in the absence of norepinephrine bitartrate, MEM with NEAA, Vitox, ABS)	over-expression of protein in comparison to bacteria grown without the inducer (SDS-PAGE) (Neisseria meningitidis; compared with bacteria grown without norepinephrine bitartrate)	growth of Neisseria under low-iron conditions (Neisseria)	growth of E. coli under low iron conditions and low inoculum levels (E. coli)
NC[C@H](O)c1ccc(O)c(O)c1 [norepinephrine bitartrate]	accelerated growth	newly expressed or overexpressed further proteins with molecular weights of about 250 kDa, about 80 kDa, and about 28 kDa	expressed proteins, including proteins with molecular weights of about 100 KDa and about 55 KDa	over-expression of an approximately 20 KDa protein		
O=C(O)C(NCCNC(C(=O)O)c1ccccc1O)c1ccccc1O (stereo not drawn) [EDDA, ethylene diamine di-ortho-hydroxyphenyl-acetic acid]					do not reliably allow good growth	nor to a lesser extent do they allow good growth
